Reference: patent US20240000747A1, “SIRTUIN 6 ACTIVATOR” (DAICEL CORPORATION, priority 2020, published 2024)

These compounds were tested on human SIRT6 promoter (assay: SIRT6 promoter activity in Caco-2-SIRT6p-EGFP reporter cells). Conditions: Caco-2-SIRT6p-EGFP cells, 10 μM test component, two days after addition, EGFP fluorescence, relative ratio to control (PBS); FIG. 1.
Type: cell-based
From the text: The human SIRT6 promoter region (from −1105 to −1 bp; SEQ ID NO: 1) was amplified by PCR using KOD FX (TOYOBO, Tokyo, Japan) with genomic DNA derived from human fetal fibroblast TIG-1 as a template. Primers used were obtained by adding restriction endonuclease recognition sequences of AseI and NheI to the ends based on the reported base sequence information of the hSIRT6 promoter. Specifically, […] designed as SIRT6p-AseI ([…]: SEQ ID NO: 2) and SIRT6p-NheI ([…]: SEQ ID NO: 3) were used. KOD FX (TOYOBO) was used as the DNA polymerase, and PCR was performed under reaction conditions of 40 cycles with one cycle of 94° C. for 2 minutes, 98° C. for 10 seconds, and 68° C. for 1 minute.
The SIRT6 promoter fragment obtained by PCR was TA-cloned into a pGEM-T Easy Vector (Promega Corporation). In addition, the base sequence was confirmed by sequencing. The SIRT6 promoter fragment incorporated into the pGEM-T Easy vector was excised by digestion with restriction enzymes AseI and NheI and inserted into a site of EGFP-C3 (available from Takara Bio Inc.) from which the CMV promoter had been removed by AseI and NheI digestion, and pSIRT6p-EGFP was obtained.
Transfection was performed using HilyMax available from DOJINDO in accordance with its protocol. On the day before transfection, 6.0×10^5 cells of Caco-2 cells (human colon cancer-derived cells; obtained from RIKEN BioResource Research Center) were seeded in a 5-mL dish. On the day of transfection, pSIRT6p-EGFP (15 μg) was diluted with DMEM medium containing 10% FBS to a volume of 300 μL in a 1.5-mL tube, then 70 μL of Hilymax was added to the tube, and the mixture was incubated at room temperature for 20 minutes. Thereafter, the whole amount was added to Caco-2 cells and cultured for 48 hours.
Based on the fact that pSIRT6p-EGFP is resistant to the drug G418 (available from Wako Pure Chemical Industries, Ltd.), drug selection was performed by adding the drug G418 to transfected cells to a final concentration of 800 μg/mL. The culture medium was replaced with a fresh culture medium every 3 days, and G418 was added at the same concentration each time. Caco-2-SIRT6p-EGFP cells were obtained from this.
Using Caco-2-SIRT6p-EGFP cells, a urolithin was examined for its enhancing effect on the promoter of the sirtuin 6 gene SIRT6. […]
Caco-2-SIRT6p-EGFP cells were seeded in a 96-well plate at 0.6×10^4 cells/well. […] This was followed by aspiration and addition of 100 μL of PBS to each well, and the fluorescence intensity was measured with an IN Cell Analyzer 1000 (GE-Healthcare, Amersham Place, UK). The promoter activity was expressed as a relative ratio to the control activity.
In the case of `O=C1OC[C@H]2OC(O)[C@H](O)[C@@H](O)[C@@H]2OC(=O)c2cc(O)c(O)c(O)c2-c2c(O)c(O)c3oc(=O)c4c(c(O)c(O)c5oc(=O)c2c3c54)-c2c1cc(O)c(O)c2O` (mixture of isomers) [punicalin], the “relative SIRT6 promoter activity (SIRT6 promoter-enhancing activity)” value (“relative SIRT6 promoter activity” below) is reported as “no or little SIRT6 promoter-enhancing activity”. In the case of `O=c1oc2cc(O)ccc2c2ccc(O)cc12` [urolithin A], the “relative SIRT6 promoter activity” value is reported as “strong SIRT6 promoter-enhancing activity”. With puricalagin the “relative SIRT6 promoter activity” value was “no or little SIRT6 promoter-enhancing activity”. With `C[C@@]12CCc3occc3[C@H]1CC[C@@]13C[C@@H](CC[C@H]12)[C@@](O)(CO)C3` [cafestol] the “relative SIRT6 promoter activity” value was “no or little SIRT6 promoter-enhancing activity”.
